# Patent US20250154467A1, “CREATION OF VASCULARIZED BIOLOGICAL STRUCTURES” (The Board of Trustees of the Leland Stanford Junior …, priority 2022, published 2025)
# “Also recorded” adds a separate entry of the source. Read-outs that look alike come from different tables or passages of the source.
# Tests used:
# RUES-GLR hESCs = experiment: Germ layer formation under different CHIR concentrations; assay type: cell-based, human; details: CHIR 4 uM added at day 0, day 6
# hESC-3R colony = experiment: 3D cVO creation in 96-well plate with a range of CHIR; assay type: cell-based, human; details: 3D cVOs, day 14, CHIR 6.0-8.5 uM
# Protocol: For 3D cVO creation, two methods were used. In the first method, stencils with single 2 mm center holes were placed in 24-well plates with Softwell Easy Coat hydrogels with a custom stiffness of 16 […]) and hESC-3R cells were micropatterned as described above. In the second method, to increase throughput and eliminate using stencils, each well of a black 96-well plate ([…]-32EA, Sigma-Aldrich) was freshly coated with a central, 2 uL drop of Matrigel (1:400 dilution) and was then seeded with 125,000 hESC-3R cells. Cells were allowed to attach and grow for 2-4 days forming a single, homogenous, round colony in the center of each well. The same differentiation protocol for 2D cVOs was then used to create 3D cVOs from days 0-14, using a range of CHIR from 6.0-8.5 μM.
# hESC-3R micropatterns [1] = experiment: cVO differentiation screening, 34 conditions, CM/EC/SMC total fluorescence area; assay type: cell-based, human
# Excerpt: Cardiac Vascularized Organoid (cVO) Differentiation. See FIG. 3C, FIG. 10H-I, and Table 1 for an overview of our thirty-four (34) cardiovascular (CV) differentiation screening conditions to produce cVOs. The Control groups utilized only CHIR, FGF2, and IWR. To begin, hPSCs suspended in single cells were transferred to Matrigel-coated non-micropatterned or micropatterned surfaces as described above and differentiated in RPMI-1640 media (61870, Thermo Fisher Scientific) supplemented with B27 without insulin (A1895601, Thermo Fisher Scientific) (RB-I). The CV differentiation was based on the baseline differentiation described previously to promote CM differentiation and contained several additional small molecules and growth factors to promote simultaneous endothelial and smooth muscle cell co-differentiation. On Day 0, for primarily mesoderm induction, basal medium was supplemented with 4 or 5 μM CHIR99021 (CHIR) (S2924, Selleck Chemicals) and 5 ng/ml FGF-2 (FGF2) (100-18B, PeproTech). On Day 3, for CM induction, 5 uM IWR-1 (IWR) (S7086, Selleck Chemicals) was added. On Days 5-16, to simultaneously induce endothelial cell vasculogenesis and angiogenesis along with the cardiomyocyte differentiation, we added combinations of 50 ng/ml VEGF-165 (VEGF) (Days 5, 7, 9, 11, 13) (100-20, PeproTech); 5 ng/ml FGF-2 (FGF2) (Days 7, 9, 11, 13) (100-18B, PeproTech); 10 uM SB431542 (SB) (Days 7, 9, or 11) ([…], Selleck Chemicals); 50 ng/ml Angiopoietin-2 (ANG2) (Days 5 and 7) (130-07, PeproTech); 50 ng/ml Angiopoietin-1 (ANG1) (Days 9 and 11) (130-06, PeproTech); and select components of the VascuLife® VEGF LifeFactors® Kit (Aghajanian et al., 2016) (LS-1020, Lifeline Cell Technology) (Days 5, 7, 9, 11, and 13) (5 ng/ml EGF, 15 ng/ml IGF-1, 50 μg/mL ascorbic acid, 0.75 U/mL heparin sulfate, […]). On Days 7-16, to simultaneously induce smooth muscle cell differentiation with cardiomyocyte and endothelial cell differentiation, we added 2.5 or 10 ng/ml PDGF-BB (PDGFBB) (Days 7, 9, 11, 13) (100-14B, PeproTech) and 0.5 or 2 ng/ml TGF-β1 (TGFβ) (Days 7, 9, 11, 13) (100-21C, PeproTech). To increase throughput, screening time-lapse microscopy was performed with the Cytation 5 Cell Imaging Multi-Mode Reader (BioTek). Five (5) forty-eight (48)-well plates (204 out of 240 wells) were imaged over the differentiation time-period. The plates contained a single 2 mm circular micropattern of undifferentiated hESC-3R cells in the center of each well subjected to thirty-four (34) differentiation conditions, with nominally 4-6 replicates per condition, imaged at six (6) timepoints (Days 3, 5, 8, 10, 12, and 16 (D3-D16)). After all raw images were acquired, image analysis was performed with Gen5 v3.05 software (BioTek). Images in each channel and each 4×4 array were stitched to create a single mosaic image; 4728 mosaics were created, and each mosaic image was downsized by 25%. Next, image processing of each mosaic was performed to reduce background independently in each channel. Finally, for each channel, thresholding was performed on fluorescence intensity along with minimum and maximum object size to calculate the total Phase, CFP, GFP, and mOrange total fluorescence area in each well for each condition at each timepoint. Each mosaic image was computationally masked by a circular “plug” to eliminate fluorescence artifact created by well edges. For each condition, values for replicate samples were summed, and the mean and standard deviation were calculated.
# hESC-3R micropatterns [2] = experiment: CHIR concentrations and VEGF addition on CM and EC co-differentiation over 14 days; assay type: cell-based, human; details: day 14
# cVO EC formation = details: for time course of detrimental effect on EC formation (regression coefficients): multiple linear regression fit, 16 days; for effect on vascularization of cVOs: pathway inhibitors, summary; for EC location within cVO: day 16
# cVOs = experiment: Beat rate with isoproterenol treatment, cVOs; assay type: cell-based, human; details: isoproterenol 0, 1, and 10 uM; n=16
# Excerpt: Cardiac Vascularized Organoid (cVO) Differentiation. See FIG. 3C, FIG. 10H-I, and Table 1 for an overview of our thirty-four (34) cardiovascular (CV) differentiation screening conditions to produce cVOs. The Control groups utilized only CHIR, FGF2, and IWR. To begin, hPSCs suspended in single cells were transferred to Matrigel-coated non-micropatterned or micropatterned surfaces as described above and differentiated in RPMI-1640 media (61870, Thermo Fisher Scientific) supplemented with B27 without insulin (A1895601, Thermo Fisher Scientific) (RB-I). The CV differentiation was based on the baseline differentiation described previously to promote CM differentiation and contained several additional small molecules and growth factors to promote simultaneous endothelial and smooth muscle cell co-differentiation. […] We assessed the contractility of Control and cVO groups in a similar manner as we have previously described. Contraction of beating CMs within the micropatterns was recorded with high-resolution motion capture tracking (75 fps) using the SI8000 Live Cell Motion Imaging System (Sony Corporation). […] Functional parameters were assessed from the averaged contraction-relaxation waveforms from 10 sec recordings, using the S[…] […] The software was used to detect motion vectors and quantify beating rate, contraction velocity, relaxation velocity, and contraction-relaxation peak interval of cVOs.
# [3] = system: Controls (baseline cardiomyocyte differentiation); experiment: Beat rate with isoproterenol treatment, Controls; assay type: cell-based, human; details: isoproterenol 0, 1, and 10 uM; n=15
# Excerpt: Baseline Cardiomyocyte (CM) Differentiation. For baseline cardiomyocyte (CM) differentiation (Control group), hPSCs were transferred to Matrigel-coated non-micropatterned and micropatterned surfaces as described above and differentiated in RPMI-1640 media (61870, Thermo Fisher Scientific) supplemented with B27 without insulin (A1895601, Gibco/Thermo Fisher Scientific). Our baseline differentiation method was based on a small molecule-based monolayer method (Lian et al., 2012; Burridge et al., 2014). Briefly, on the first day (Day 0) of differentiation, basal medium was supplemented with 4, 5, or 6 μM CHIR99021 (CHIR) (S2924, Selleck Chemicals) and 5 ng/mL FGF-2 (FGF2) (100-18B, PeproTech). On Day 2, the medium was replaced with basal medium containing B27 without insulin. […] We assessed the contractility of Control and cVO groups in a similar manner as we have previously described. Contraction of beating CMs within the micropatterns was recorded with high-resolution motion capture tracking (75 fps) using the SI8000 Live Cell Motion Imaging System (Sony Corporation). […] Functional parameters were assessed from the averaged contraction-relaxation waveforms from 10 sec recordings, using the S[…] […] The software was used to detect motion vectors and quantify beating rate, contraction velocity, relaxation velocity, and contraction-relaxation peak interval of cVOs.
# [4] = CHIR 4 vs 5 uM for each condition, day 12
compound,measurement,setting,value
"Cc1cnc(-c2cnc(NCCNc3ccc(C#N)cn3)nc2-c2ccc(Cl)cc2Cl)[nH]1 [CHIR, 6-[[2-[[4-(2,4-Dichlorophenyl)-5-(5-methyl-1H-imidazol-2-yl)-2-pyrimidinyl]amino]ethyl]amino]-3-pyridinecarbonitrile]",germ layer formation in micropatterned RUES-GLR hESCs,RUES-GLR hESCs,"central BRA+ mesodermal area was surrounded by a SOX17+ endodermal ring and no SOX2 ectodermal expression; also recorded: BRA+ mesodermal central area surrounded by a SOX17+ endodermal ring, with no SOX2 ectodermal expression"
same,CHIR concentration giving the most CMs and ECs,hESC-3R colony,7.0 µM
same,"CHIR concentration giving the most CMs, ECs, and SMCs","hESC-3R micropatterns [1]; 34 screening conditions, CHIR 4 uM vs 5 uM",5 µM
same,CHIR concentration giving the most CMs (GFP total fluorescence area),hESC-3R micropatterns [1]; [4],5 µM
same,CHIR concentration giving the most ECs (mOr total fluorescence area),hESC-3R micropatterns [1]; [4],5 µM
same,CHIR concentration giving the most SMCs (CFP total fluorescence area),hESC-3R micropatterns [1]; [4],5 µM
same,CHIR concentration giving the most CMs,"hESC-3R micropatterns [2]; CHIR+FGF2+IWR (Control), CHIR 3, 4, and 5 uM",5 µM
same,CHIR concentration giving the most CMs and ECs,hESC-3R micropatterns [2]; CHIR+FGF2+IWR+VEGF 50 ng/ml,5 µM
C[C@H](NC(=O)Cc1cc(F)cc(F)c1)C(=O)N[C@H](C(=O)OC(C)(C)C)c1ccccc1 [DAPT],difference in cVO EC formation between concentrations,cVO EC formation; DAPT 1 vs 10 uM,no significant (ns) difference
same,time course of detrimental effect on EC formation (regression coefficients),cVO EC formation,decays over time
same,effect on vascularization of cVOs,cVO EC formation,general disruptive effects on vascularization
"Cl.Cl.c1cc(-c2cnn3cc(-c4ccc(OCCN5CCCCC5)cc4)cnc23)ccn1 [Dorsomorphin, 6-[4-[2-(1-Piperidinyl)ethoxy]phenyl]-3-(4-pyridinyl)-pyrazolo[1,5-a]pyrimidine dihydrochloride]",difference in cVO EC formation between concentrations,cVO EC formation; Dorsomorphin 0.1 vs 1.0 uM,no significant (ns) difference
same,time course of detrimental effect on EC formation (regression coefficients),cVO EC formation,exponentially increases
same,effect on vascularization of cVOs,cVO EC formation,general disruptive effects on vascularization
CC(C)NCC(O)c1ccc(O)c(O)c1 (stereo not shown) [isoproterenol],Beat rate of cVOs,cVOs,significantly increased; also recorded: increases
same,Beat rate of Controls,[3],significantly increased; also recorded: increases
Angiostatin,EC location within cVO,cVO EC formation; Angiostatin 0.1 ug/mL,ECs congregated in the center area of starting micropatterns
same,EC location within cVO,cVO EC formation; Angiostatin 1.0 ug/mL,ECs congregated at the periphery of starting micropatterns
same,difference in cVO EC formation between concentrations,cVO EC formation; Angiostatin 0.1 vs 1.0 ug/mL,no significant (ns) difference
same,effect on vascularization of cVOs,cVO EC formation,general disruptive effects on vascularization
VEGF,"EC formation (mOr) compared to Control, FGF2 alone and SB alone","hESC-3R micropatterns [1]; VEGF alone, 50 ng/ml, day 12",most ECs
same,effect on CM formation (GFP),"hESC-3R micropatterns [1]; VEGF alone, 50 ng/ml, day 12",no statistical (ns) effect
